Laboratory results reported in PMC11268196, “Biochemical characterization of ClpB and DnaK from Anaplasma phagocytophilum” (Cell Stress & Chaperones, 2024).

Key:
[1] = biological target: T1, ApK (A. phagocytophilum DnaK) (Anaplasma phagocytophilum, UniProt Q2GKZ8); test: fluorescence anisotropy of FITC-labeled peptide B2 (nucleotide effect on peptide binding); settings: 2 mM ADP; indirect read-out through labelled peptide B2
T1 sequence (Q2GKZ8 1-645): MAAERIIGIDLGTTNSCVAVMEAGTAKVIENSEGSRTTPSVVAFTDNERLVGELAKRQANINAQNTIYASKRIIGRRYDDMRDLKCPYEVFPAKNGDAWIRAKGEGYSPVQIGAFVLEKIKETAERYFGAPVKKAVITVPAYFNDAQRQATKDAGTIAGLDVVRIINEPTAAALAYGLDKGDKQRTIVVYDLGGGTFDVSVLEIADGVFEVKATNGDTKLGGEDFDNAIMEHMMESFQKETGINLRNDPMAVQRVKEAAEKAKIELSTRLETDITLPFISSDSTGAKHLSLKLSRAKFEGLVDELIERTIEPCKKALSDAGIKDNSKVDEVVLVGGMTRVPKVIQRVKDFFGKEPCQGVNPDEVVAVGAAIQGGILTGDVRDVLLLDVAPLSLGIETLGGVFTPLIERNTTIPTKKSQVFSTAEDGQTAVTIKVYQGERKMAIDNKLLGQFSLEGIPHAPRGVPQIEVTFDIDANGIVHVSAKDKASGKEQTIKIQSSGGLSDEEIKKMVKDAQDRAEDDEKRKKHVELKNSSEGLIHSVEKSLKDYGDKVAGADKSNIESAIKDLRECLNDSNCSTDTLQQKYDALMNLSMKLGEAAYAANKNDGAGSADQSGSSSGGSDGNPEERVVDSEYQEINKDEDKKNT

EcB (E. coli ClpB) = EcB (E. coli ClpB) (Escherichia coli, UniProt P63284); test: malachite green phosphate release (ATPase); format: biochemical; settings: 5 mM ATP, 20 mM MgCl2, pH 7.4, 37 °C; basal (no casein or poly-lysine)
Sequence of EcB (E. coli ClpB) (P63284 whole entry): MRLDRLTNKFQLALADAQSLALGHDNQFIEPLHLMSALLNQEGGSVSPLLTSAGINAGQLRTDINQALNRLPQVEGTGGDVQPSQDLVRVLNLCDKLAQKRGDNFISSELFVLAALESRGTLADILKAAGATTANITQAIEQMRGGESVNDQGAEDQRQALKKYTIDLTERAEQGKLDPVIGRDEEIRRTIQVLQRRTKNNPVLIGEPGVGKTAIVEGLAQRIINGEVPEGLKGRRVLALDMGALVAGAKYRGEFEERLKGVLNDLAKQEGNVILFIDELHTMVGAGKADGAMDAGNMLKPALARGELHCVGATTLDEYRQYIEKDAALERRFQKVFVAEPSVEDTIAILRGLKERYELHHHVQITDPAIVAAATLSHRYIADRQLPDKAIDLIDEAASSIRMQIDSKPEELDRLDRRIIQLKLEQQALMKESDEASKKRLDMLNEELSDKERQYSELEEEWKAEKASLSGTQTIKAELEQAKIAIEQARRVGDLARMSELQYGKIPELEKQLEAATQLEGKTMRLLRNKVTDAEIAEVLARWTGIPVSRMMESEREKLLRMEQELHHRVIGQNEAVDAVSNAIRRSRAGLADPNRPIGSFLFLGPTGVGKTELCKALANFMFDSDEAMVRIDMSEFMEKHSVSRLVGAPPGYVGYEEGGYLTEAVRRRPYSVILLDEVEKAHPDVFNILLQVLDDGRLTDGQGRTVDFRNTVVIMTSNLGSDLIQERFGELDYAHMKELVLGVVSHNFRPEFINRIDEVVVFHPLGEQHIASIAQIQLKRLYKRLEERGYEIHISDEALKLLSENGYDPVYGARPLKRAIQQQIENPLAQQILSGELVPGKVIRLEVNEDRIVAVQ

[2] = biological target: T1, ApK (A. phagocytophilum DnaK); test: malachite green phosphate release (ATPase); format: biochemical; settings: 5 mM ATP, 20 mM MgCl2, pH 7.4, 37 °C; basal (no casein or poly-lysine)
EcK (E. coli DnaK) = EcK (E. coli DnaK) (Escherichia coli, UniProt P0A6Y8); settings: 5 mM ATP, 20 mM MgCl2, pH 7.4, 37 °C; basal (no casein or poly-lysine)
Sequence of EcK (E. coli DnaK) (P0A6Y8 2-638): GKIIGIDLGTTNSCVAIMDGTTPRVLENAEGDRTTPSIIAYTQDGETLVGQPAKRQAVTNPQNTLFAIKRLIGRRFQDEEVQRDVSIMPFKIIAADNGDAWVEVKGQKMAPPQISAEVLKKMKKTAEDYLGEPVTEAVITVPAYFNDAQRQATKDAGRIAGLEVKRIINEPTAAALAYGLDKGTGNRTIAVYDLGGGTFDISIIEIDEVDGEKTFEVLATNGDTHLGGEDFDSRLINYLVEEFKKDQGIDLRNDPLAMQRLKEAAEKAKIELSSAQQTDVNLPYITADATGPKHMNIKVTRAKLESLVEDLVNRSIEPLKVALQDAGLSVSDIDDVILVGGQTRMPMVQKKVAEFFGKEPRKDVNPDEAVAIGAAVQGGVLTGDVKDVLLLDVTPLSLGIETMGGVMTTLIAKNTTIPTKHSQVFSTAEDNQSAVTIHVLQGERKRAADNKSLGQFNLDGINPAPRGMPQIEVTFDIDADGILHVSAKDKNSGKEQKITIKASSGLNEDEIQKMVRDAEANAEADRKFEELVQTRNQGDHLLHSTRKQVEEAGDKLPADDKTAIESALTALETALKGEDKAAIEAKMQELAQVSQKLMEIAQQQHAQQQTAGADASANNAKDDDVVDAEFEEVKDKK

[3] = biological target: T2, ApB (A. phagocytophilum ClpB) (Anaplasma phagocytophilum, UniProt Q2GL99); settings: 5 mM ATP, 20 mM MgCl2, pH 7.4, 37 °C; basal (no casein or poly-lysine)
T2 sequence (Q2GL99 1-859): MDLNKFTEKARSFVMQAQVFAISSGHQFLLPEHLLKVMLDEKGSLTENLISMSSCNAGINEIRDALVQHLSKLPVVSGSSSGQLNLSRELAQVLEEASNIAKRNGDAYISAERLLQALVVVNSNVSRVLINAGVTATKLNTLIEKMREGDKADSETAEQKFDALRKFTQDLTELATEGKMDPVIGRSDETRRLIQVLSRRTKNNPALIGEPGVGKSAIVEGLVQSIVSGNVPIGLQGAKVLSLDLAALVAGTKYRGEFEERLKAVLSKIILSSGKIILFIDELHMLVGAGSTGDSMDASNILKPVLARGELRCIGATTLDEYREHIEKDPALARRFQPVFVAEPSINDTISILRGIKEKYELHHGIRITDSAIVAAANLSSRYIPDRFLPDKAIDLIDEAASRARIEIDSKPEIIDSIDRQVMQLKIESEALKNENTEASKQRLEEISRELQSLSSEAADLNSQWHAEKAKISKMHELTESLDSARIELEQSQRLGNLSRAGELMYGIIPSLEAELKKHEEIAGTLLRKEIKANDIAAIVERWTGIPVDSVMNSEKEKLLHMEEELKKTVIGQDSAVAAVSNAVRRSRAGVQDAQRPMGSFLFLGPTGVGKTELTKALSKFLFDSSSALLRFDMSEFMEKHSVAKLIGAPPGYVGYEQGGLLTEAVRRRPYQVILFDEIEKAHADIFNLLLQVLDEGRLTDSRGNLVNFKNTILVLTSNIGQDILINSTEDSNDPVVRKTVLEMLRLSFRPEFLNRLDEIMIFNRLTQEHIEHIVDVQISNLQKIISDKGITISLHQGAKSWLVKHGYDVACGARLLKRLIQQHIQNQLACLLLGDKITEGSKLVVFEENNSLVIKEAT

Nc1ncnc2c1ncn2[C@@H]1O[C@H](COP(=O)(O)OP(=O)(O)O)[C@@H](O)[C@H]1O [ADP]
fluorescence anisotropy of FITC-labeled peptide B2 (nucleotide effect on peptide) [1]: ADP induced a strong binding of B2 to ApK

Nc1ncnc2c1ncn2[C@@H]1O[C@H](COP(=O)(O)OP(=O)(O)OP(=O)(O)O)[C@@H](O)[C@H]1O [ATP]
ATPase activity (EcB (E. coli ClpB)): the basal ATPase activity of ApB exceeded that of EcB | ATPase activity [2]: The basal ATPase activity of ApK was lower than that of EcK | ATPase activity (EcK (E. coli DnaK)): The basal ATPase activity of ApK was lower than that of EcK | ATPase activity [3]: the basal ATPase activity of ApB exceeded that of EcB
